Measured values from patent US20120122870A1, “Treatment Of Ischemia-Reperfusion Injury” (MUSC FOUNDATION FOR RESEARCH DEVELOPMENT, priority 2009, published 2012).
“Also recorded” adds a separate entry of the source.

Columns and labels:
[1] = tested on: kidney damage after severe ischemia-reperfusion; assay: Kidney histology (H&E) after severe kidney IR; assay type: in vivo, mice; conditions: 4 and 48 hours post ischemia and reperfusion
Description: Kidneys from the animals described with respect to FIG. 4 were sectioned and stained with H&E for histological evaluation. […] Kidney sections were quantitatively scored on a scale of 1 to 3 for five parameters (tubule cell swelling, tubular dilatation, edema, epithelial necrosis and tubular casts) that were added to generate a total score (FIG. 6).

hepatic warm IR in mice = assay: Serum ALT and total bilirubin after hepatic warm IR; assay type: in vivo
Description: Liver warm ischemia was induced as described above. Blood was collected at 6 h after reperfusion, and serum alanine aminotransferase (ALT) activity and bilirubin were measured. Before ischemia, serum ALT levels were 22 U/L. At 6 h after reperfusion, ALT levels increased to ˜19,000 U/L in livers exposed to 1 h-ischemia (FIG. 12A). Pretreatment of the animals with ABC294640 decreased ALT levels after IR to ˜1,600 U/L, which reflects a >90% decrease compared to livers without ABC294640 treatment (FIG. 12A). […] Bilirubin accumulates in the blood when liver function is poor. Serum total bilirubin was 0.26 mg/dL in mice subjected to the sham operation. Bilirubin increased 3-fold 6 h after reperfusion (FIG. 12B). […] Clinical chemistry: Blood samples were collected from the vena cava at various times, and ALT and bilirubin were measured enzymatically using analytic kits from Pointe Scientific.

[2] = tested on: SK expression in the liver; assay: SK immunohistochemistry in liver after hepatic warm IR; assay type: in vivo, mice; conditions: 50 mg/kg gavage 1 h prior to surgery; 1 h-ischemia plus 6 h-reperfusion
Description: Warm IR upregulates SK in the liver. IR injury to the liver occurs in LT. Since SK is associated with inflammatory processes, we investigated whether IR affects SK expression in the liver. Male C57BL/6 mice (8-9 weeks) were gavaged with ABC294640 (ABC, 50 mg/kg) or an equal volume of vehicle (0.375% Tween-80 in phosphate buffer) 1 h prior to surgery. Under ether anesthesia, hepatic ischemia was induced by clamping the hepatic artery and portal vein to the upper three lobes of the liver (i.e., about 70% of total liver). One hour later, the ischemic liver was reperfused by opening the vascular clamp. Livers were collected 6 h later under pentobarbital anesthesia (80 mg/kg, i.p.) and SK was detected immunohistochemically. […] SK expression increased markedly after hepatic IR (FIG. 9 middle). Upregulation of SK occurred most overtly in hepatocytes in the midzonal regions of the liver lobule. […] Immunohistochemistry: Sections were deparaffinized in xylene, rehydrated in a series of graded alcohol concentrations and placed in phosphate buffered saline with 0.1% Tween-20. […] Appropriate peroxidase-conjugated secondary antibodies (DAKO Corp.) were then applied, followed by 3,3'-diaminobenzidine chromagen as the peroxidase substrate. A light counterstain of Meyer's hematoxylin was applied.

[3] = tested on: hepatic warm IR in C57BL/6 mice; assay: Liver necrosis (H+E, image analysis) after hepatic warm IR; assay type: in vivo
Description: Warm IR upregulates SK in the liver. IR injury to the liver occurs in LT. Since SK is associated with inflammatory processes, we investigated whether IR affects SK expression in the liver. Male C57BL/6 mice (8-9 weeks) were gavaged with ABC294640 (ABC, 50 mg/kg) or an equal volume of vehicle (0.375% Tween-80 in phosphate buffer) 1 h prior to surgery. Under ether anesthesia, hepatic ischemia was induced by clamping the hepatic artery and portal vein to the upper three lobes of the liver (i.e., about 70% of total liver). One hour later, the ischemic liver was reperfused by opening the vascular clamp. Livers were collected 6 h later under pentobarbital anesthesia (80 mg/kg, i.p.) and SK was detected immunohistochemically. […] SK expression increased markedly after hepatic IR (FIG. 9 middle). Upregulation of SK occurred most overtly in hepatocytes in the midzonal regions of the liver lobule.
ABC294640 prevents hepatic warm IR-induced cell death. SK increased after hepatic IR, therefore, we investigated whether ABC294640 protects against hepatic IR injury. […] Necrotic areas became panlobular after 1 h-ischemia plus 6 h of reperfusion (FIG. 10, middle). Necrotic area, quantified by computerized image analysis of 10 random fields per slide, accounted for 68% of the liver tissue (FIG. 11A). […] Hepatic apoptosis was evaluated by terminal deoxylnucleotidyl transferase-mediated deoxyuridine triphosphate biotin nick end labeling (TUNEL) (FIG. 11B). […]
Histology: Under pentobarbital anesthesia (50 mg/kg, i.p.), livers were rinsed with 10 ml normal saline and perfusion-fixed with 4% paraformaldehyde in phosphate buffer, embedded in paraffin, and sections were stained with hematoxylin-eosin (H+E). Necrotic areas in sections were quantified by image analysis using an Image-1/AT image acquisition and analysis system (Universal Imaging Corp., West Chester, Pa.) incorporating an Axioskop 50 microscope (Carl Zeiss, Inc., Thornwood, NY) and a 10× objective lens.

[4] = tested on: phosphorylated p65 subunit of NF-κB; assay: Phosphorylated p65 NF-κB immunoblot after hepatic warm IR; assay type: in vivo, mice; conditions: livers harvested 2 h after IR
Description: ABC294640 prevents hepatic warm IR-induced tumor necrosis factor-α (TNFα) formation and NF-κB activation. Toxic cytokine formation and inflammatory processes play important roles in IR injury, and S1P is well known to promote inflammation. Accordingly, we investigated whether ABC294640 affects the expression of the pro-inflammatory cytokine TNFα after IR. Livers were harvested at 2 h after reperfusion and TNFα mRNA was detected by quantitative real time PCR. TNFα mRNA increased ˜10-fold after IR (FIG. 15, upper). ABC294640 blunted this increase in TNFα mRNA by ˜50%. NF-κB activation is involved in inflammatory cytokine formation and upregulation of adhesion molecules. After IR, phosphorylation of p65 subunit of NF-κB increased markedly, indicating NF-κB activation. This effect was also blunted by ABC294640 (FIG. 15 lower) which is consistent with our previous studies of NF-κB activation. Western blotting: Briefly, liver tissue was homogenized in a 0.1% Triton-X100 buffer containing a protease inhibitor cocktail, and the extract was centrifuged at 12,000×g for 10 min at 4° C. […] Expression of the protein of interest was quantified by the density of Western blot images by densitometry and standardized by house keeping gene actin.

[5] = 1 h-ischemia plus 6 h-reperfusion

With `O=C(NCc1ccncc1)C12CC3CC(C1)CC(c1ccc(Cl)cc1)(C3)C2` [ABC294640, 3-(4-chlorophenyl)-N-(pyridin-4-ylmethyl)adamantane-1-carboxamide] the “kidney histological damage vs vehicle” value [1] was “protects against microscopic damage; also recorded: much less damage”, the “liver function / hepatic IR injury (in words)” value (hepatic warm IR in mice; [5]) was “markedly decreases hepatic IR injury; also recorded: improves liver function” and the “decrease of ALT compared to livers without treatment” value (hepatic warm IR in mice; 1 h-ischemia, 6 h after reperfusion) was over 90%. The “accumulation of serum total bilirubin” value (hepatic warm IR in mice; 6 h after reperfusion) was “almost completely reversed”, the “serum ALT levels after IR” value (hepatic warm IR in mice; pretreatment 50 mg/kg, 1 h-ischemia, 6 h after reperfusion) was ~1,600 U/L and the “upregulation of SK after hepatic IR” value [2] was “prevents upregulation; also recorded: attenuated upregulation”. For the same compound, the “necrotic area of liver tissue” value ([3]; 50 mg/kg, 1 h-ischemia plus 6 h of reperfusion, image analysis of 10 random fields) was about 7%, the “necrosis / cell death after hepatic IR (in words)” value [3, 5] was “attenuates necrosis; also recorded: prevents cell death” and the “attenuation of necrosis compared to vehicle-treated livers” value ([3]; 1 h-ischemia plus 6 h of reperfusion) was about 90%. The “phosphorylation of p65 subunit of NF-κB (NF-κB activation)” value [4] was “blunts”.
